From patent US9079895B2, “Morpholino compounds, uses and methods” (University of Dundee, priority 2012, dated 2015)

Legend:
Details in all cases: average of at least two experiments
dopamine D1 receptor = dopamine D1 receptor (Homo sapiens (Human), UniProt P21728); assay: Secondary radioligand binding assay, D1; design: key to Ki D1: “—” indicates that a binding interaction was not detected
Protocol: 1. Secondary Radioligand Binding Assays
The detailed experimental protocols for the radioligand and functional receptor assays are available on the NIMH PDSP website at http://pdsp.med.unc.edu/UNC-CH %20Protocol %20Book.pdf.
Radioligand is diluted to five times the assay concentration (see Table 18) in Standard Binding Buffer. Typically, the assay concentration of radioligand is a value between one half the KD and the KD of a particular radioligand at its target. 50 μl aliquots of radioligand are dispensed into the wells of a 96-well plate containing 100 μl of Standard Binding Buffer. Then, duplicate 50 μl aliquots of the test and reference compound dilutions are added.
The 250 μl reactions are incubated at room temperature and shielded from light (to prevent photolysis of light-sensitive ligands) for 1.5 hours, then harvested by rapid filtration onto Whatman GF/B glass fiber filters pre-soaked with 0.3% polyethyleneimine using a 96-well Brandel harverster. Four rapid 500 μl washes are performed with chilled Standard Binding Buffer to reduce non-specific binding. Filters are placed in 6 ml scintillation tubes and allowed to dry overnight. The next day, 4 ml of EcoScint scintillation cocktail (National Diagnostics) are added to each tube. The tubes are capped, labeled, and counted by liquid scintillation counting. […] The filter mats are dried, then scintillant is melted onto the filters and the radioactivity retained on the filters is counted in a Microbeta scintillation counter.
Raw data (dpm) representing total radioligand binding (i.e. specific+non-specific binding) are plotted as a function of the logarithm of the molar concentration of the competitor (i.e. test or reference compound).
B. Dopamine Receptors: D1, D2, D3, D4, D5 Assay Buffers: Dopamine Binding Buffer (50 mM NaCl, 50 mM HEPES-HCl, 5 mM MgCl2, 0.5 mM EDTA, pH 7.4) Membrane Fraction Source: Transiently or stably transfected cell lines (e.g. HEK293, COS, CHO, NIH3T3)
The method is carried out in the manner described for the serotonin receptor assay above. Eleven dilutions (5× assay concentration) of the test and reference (see Table 19) compounds are prepared in Dopamine Binding Buffer by serial dilution, as previously described. Radioligand is diluted to five times the assay concentration (see Table 20) in Dopamine Binding Buffer.

5HT4 receptor = 5HT4 receptor (Homo sapiens (Human), UniProt Q13639); assay: Secondary radioligand binding assay, 5HT4; design: key: “—” indicates that a binding interaction was not detected
5HT4 receptor, sequence (Q13639 whole entry): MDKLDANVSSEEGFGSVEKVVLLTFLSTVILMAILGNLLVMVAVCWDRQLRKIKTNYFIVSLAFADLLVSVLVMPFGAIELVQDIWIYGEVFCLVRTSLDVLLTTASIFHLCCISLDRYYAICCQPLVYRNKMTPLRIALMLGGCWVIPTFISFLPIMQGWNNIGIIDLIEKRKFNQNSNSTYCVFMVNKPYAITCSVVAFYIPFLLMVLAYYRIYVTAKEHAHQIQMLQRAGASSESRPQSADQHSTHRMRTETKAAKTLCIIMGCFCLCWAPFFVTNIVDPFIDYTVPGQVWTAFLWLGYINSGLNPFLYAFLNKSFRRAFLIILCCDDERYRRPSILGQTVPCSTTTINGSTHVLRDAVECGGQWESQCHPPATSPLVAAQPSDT
Protocol: 1. Secondary Radioligand Binding Assays The detailed experimental protocols for the radioligand and functional receptor assays are available on the NIMH PDSP website at http://pdsp.med.unc.edu/UNC-CH %20Protocol %20Book.pdf. Assay Buffer: Standard Binding Buffer (50 mM Tris-HCl, 10 mM MgCl2, 1 mM EDTA, pH 7.4) Membrane Fraction Source: Transiently or stably transfected cell lines (e.g., HEK293, COS, CHO, NIH3T3) Protocol adapted from Roth et al. (1986), J. Pharmacol. Exp. Ther., 238(2): 480-485; and Roth et al. (1994), J. Pharmacol. Exp. Ther., 268(3): 1403-1410. […] A similar stock of a reference compound (positive control) is also prepared. […] Radioligand is diluted to five times the assay concentration (see Table 18) in Standard Binding Buffer. Typically, the assay concentration of radioligand is a value between one half the KD and the KD of a particular radioligand at its target. 50 μl aliquots of radioligand are dispensed into the wells of a 96-well plate containing 100 μl of Standard Binding Buffer. Then, duplicate 50 μl aliquots of the test and reference compound dilutions are added. Finally, crude membrane fractions of cells expressing recombinant target (prepared from 10 cm plates by harvesting PBS-rinsed monolayers, resuspending and lysing in chilled, hypotonic 50 mM Tris-HCl, pH 7.4, centrifuging at 20,000×g, decanting the supernatant and storing at −80° C.; typically, one 10 cm plate provides sufficient material for 24 wells), are resuspended in 3 ml of chilled Standard Binding Buffer and homogenized by several passages through a 26 gauge needle, then 50 μl are dispensed into each well. […] Four rapid 500 μl washes are performed with chilled Standard Binding Buffer to reduce non-specific binding. Filters are placed in 6 ml scintillation tubes and allowed to dry overnight. The next day, 4 ml of EcoScint scintillation cocktail (National Diagnostics) are added to each tube. The tubes are capped, labeled, and counted by liquid scintillation counting. For higher throughput assays, bound radioactivity is harvested onto 0.3% polyethyleneimine-treated, 96-well filter mats using a 96-well Filtermate harvester. The filter mats are dried, then scintillant is melted onto the filters and the radioactivity retained on the filters is counted in a Microbeta scintillation counter. Raw data (dpm) representing total radioligand binding (i.e. specific+non-specific binding) are plotted as a function of the logarithm of the molar concentration of the competitor (i.e. test or reference compound).

[1] = target: Alpha1B adrenergic receptor (Homo sapiens (Human), UniProt P35368); assay: Secondary radioligand binding assay, Alpha1B; design: key to Ki Alpha1B: “—” indicates that a binding interaction was not detected
Alpha1B adrenergic receptor, sequence (P35368 whole entry): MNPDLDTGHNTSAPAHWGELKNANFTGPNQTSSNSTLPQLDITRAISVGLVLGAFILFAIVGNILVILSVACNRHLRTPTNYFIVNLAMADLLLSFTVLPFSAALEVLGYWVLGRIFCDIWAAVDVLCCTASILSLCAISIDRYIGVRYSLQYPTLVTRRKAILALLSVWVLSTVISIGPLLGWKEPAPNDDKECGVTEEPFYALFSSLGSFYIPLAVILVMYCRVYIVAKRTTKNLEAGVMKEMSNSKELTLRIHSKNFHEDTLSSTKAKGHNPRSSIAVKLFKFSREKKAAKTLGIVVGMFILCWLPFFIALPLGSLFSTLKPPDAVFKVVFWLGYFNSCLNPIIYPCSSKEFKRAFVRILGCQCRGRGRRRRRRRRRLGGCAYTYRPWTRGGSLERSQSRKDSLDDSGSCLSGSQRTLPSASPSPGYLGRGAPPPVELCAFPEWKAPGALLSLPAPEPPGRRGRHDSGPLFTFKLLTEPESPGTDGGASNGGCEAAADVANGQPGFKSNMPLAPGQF
Source text: 1. Secondary Radioligand Binding Assays The detailed experimental protocols for the radioligand and functional receptor assays are available on the NIMH PDSP website at http://pdsp.med.unc.edu/UNC-CH %20Protocol %20Book.pdf. Raw data (dpm) representing total radioligand binding (i.e. specific+non-specific binding) are plotted as a function of the logarithm of the molar concentration of the competitor (i.e. test or reference compound). […] C. Adrenergic Receptors: α1A, α1B, α2A, α2B, α2C, β1, β2, β3 Assay Buffers: For α1 receptors, α1 Binding Buffer (20 mM Tris-HCl, 145 mM NaCl, pH 7.4); for α2 receptors, α2 Binding Buffer (50 mM Tris-HCl, 5 mM MgCl2, pH 7.7); for β receptors, β Binding Buffer (50 mM Tris-HCl, 3 mM MnCl2, pH 7.7) Membrane Fraction Source: Transiently or stably transfected cell lines (e.g. HEK293, COS, CHO, NIH3T3) Protocol adapted from Arango et al. […] (1990), Gen. Psychiatry, 47: 1038-1047. The method is carried out in the manner described for the serotonin receptor assay above, except where described below. Eleven dilutions (5× assay concentration) of the test and reference (see Table 20) compounds are prepared in the appropriate buffer by serial dilution, as previously described. Radioligand is diluted to five times the assay concentration (see Table 21) in the appropriate buffer. […] Four rapid 500-μl washes are performed with chilled distilled water (for α1 and β receptors) or 0.1% polyethyleneimine (for α2 receptors) to reduce non-specific binding. Filters are placed in 6 ml scintillation tubes and allowed to dry overnight and the samples are treated to obtain data as described above. [table]

5HT6 receptor = 5HT6 receptor (Homo sapiens (Human), UniProt P50406); assay: Secondary radioligand binding assay, 5HT6; design: key: “—” indicates that a binding interaction was not detected;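 note: competition displacement of radioligand from membranes of transfected cell lines expressing the receptor, 1.5 h at room temperature, bound radioactivity counted by scintillation after filtration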
5HT6 receptor, sequence (P50406 whole entry): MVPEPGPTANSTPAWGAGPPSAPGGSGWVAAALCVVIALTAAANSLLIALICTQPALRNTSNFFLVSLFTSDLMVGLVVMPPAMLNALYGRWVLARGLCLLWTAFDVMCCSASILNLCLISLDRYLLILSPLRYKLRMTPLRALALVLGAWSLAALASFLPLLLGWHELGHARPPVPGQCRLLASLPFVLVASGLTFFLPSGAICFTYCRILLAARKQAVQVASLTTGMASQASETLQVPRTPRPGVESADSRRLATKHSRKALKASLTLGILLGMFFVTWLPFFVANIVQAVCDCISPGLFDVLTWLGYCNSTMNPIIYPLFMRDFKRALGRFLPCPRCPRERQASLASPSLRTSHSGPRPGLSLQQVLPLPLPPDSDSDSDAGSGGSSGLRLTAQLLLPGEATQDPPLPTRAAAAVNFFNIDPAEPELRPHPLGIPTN

5HT7 receptor = 5HT7 receptor (Homo sapiens (Human), UniProt P34969); assay: Secondary radioligand binding assay, 5HT7; design: key to Ki 5HT7: “—” indicates that a binding interaction was not detected;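 note: competition of test compound with radioligand for binding to membranes from transfected cell lines, 1.5 h incubation at room temperature, filter-bound radioactivity read by liquid scintillation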
5HT7 receptor, sequence (P34969 whole entry): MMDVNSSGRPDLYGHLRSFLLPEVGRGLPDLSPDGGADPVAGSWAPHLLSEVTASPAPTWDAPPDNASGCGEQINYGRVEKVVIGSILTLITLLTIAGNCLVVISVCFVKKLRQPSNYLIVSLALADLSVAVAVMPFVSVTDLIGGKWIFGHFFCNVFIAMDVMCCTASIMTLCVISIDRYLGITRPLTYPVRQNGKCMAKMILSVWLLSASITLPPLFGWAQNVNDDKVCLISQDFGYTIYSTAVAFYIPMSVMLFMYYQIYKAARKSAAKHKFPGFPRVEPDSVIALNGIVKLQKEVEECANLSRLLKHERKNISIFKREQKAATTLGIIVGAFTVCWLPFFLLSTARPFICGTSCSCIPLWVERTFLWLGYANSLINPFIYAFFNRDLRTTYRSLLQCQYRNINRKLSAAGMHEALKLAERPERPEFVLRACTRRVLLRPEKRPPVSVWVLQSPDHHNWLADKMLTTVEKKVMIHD

dopamine D1 receptor, sequence (P21728 whole entry): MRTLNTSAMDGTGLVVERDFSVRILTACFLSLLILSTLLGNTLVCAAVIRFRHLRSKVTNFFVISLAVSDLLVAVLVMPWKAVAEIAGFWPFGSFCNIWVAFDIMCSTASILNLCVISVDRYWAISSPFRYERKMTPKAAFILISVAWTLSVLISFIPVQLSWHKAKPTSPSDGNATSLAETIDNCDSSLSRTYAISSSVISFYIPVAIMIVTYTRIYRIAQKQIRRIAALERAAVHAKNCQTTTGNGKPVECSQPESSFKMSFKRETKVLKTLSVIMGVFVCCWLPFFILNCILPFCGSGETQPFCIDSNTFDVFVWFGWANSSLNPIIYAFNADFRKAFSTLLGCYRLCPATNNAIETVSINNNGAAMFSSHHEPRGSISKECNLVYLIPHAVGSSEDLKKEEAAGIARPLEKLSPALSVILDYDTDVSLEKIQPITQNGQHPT

Ki 5HT4 (5HT4 receptor) | Ki Alpha1B [1] | Ki 5HT6 (5HT6 receptor) | Ki 5HT7 (5HT7 receptor) | Ki D1 (dopamine D1 receptor) | Ki (5HT7 receptor) [µM] | Structure (SMILES) | Ki (dopamine D1 receptor) [µM] | Ki [1] [µM]
— | — | — | — |  |  | Cc1ncccc1OC[C@@H]1CN(CC(=O)N2c3ccccc3C[C@H]2C)CCO1 [Compound 61] | > 10 | 
— | — | — | — | — |  | c1ccc(OC[C@H]2CN(CCN3CCc4ccccc43)CCO2)nc1 [Compound 15r, (R)-4-(2-(Indolin-1-yl)ethyl)-2-((pyridin-2-yloxy)methyl)morpholine] |  | 
— | — | — | — | — |  | CC1Cc2ccccc2N1C(=O)CN1CCO[C@@H](COc2ccncc2)C1 (some centres unmarked) [Compound 68] |  | 
— | — | — |  | — | > 10 | Cc1ncccc1OC[C@H]1CN(CCN2CCc3ccccc32)CCO1 [Compound 26r, (R)-4-(2-(Indolin-1-yl)ethyl)-2-(((2-methylpyridin-3-yl)oxy)methyl)morpholine] |  | 
— | — | — | — |  |  | Cc1ccnc(OC[C@H]2CN(CC(=O)N3c4ccccc4CC3C)CCO2)c1 (some centres unmarked) [Compound 70] | > 10 | 
— | — | — | — | — |  | C[C@@H]1Cc2ccccc2N1C(=O)CN1CCO[C@@H](COc2ccncc2)C1 [Compound 67] |  | 
— | — | — | — | — |  | CC1Cc2ccccc2N1C(=O)CN1CCO[C@@H](COc2ccccn2)C1 (some centres unmarked) [Compound 69] |  | 
— | — | — | — | — |  | Cc1ncccc1OC[C@H]1CN(CC(=O)N2c3ccccc3C[C@H]2C)CCO1 [Compound 63] |  | 
— | — | — | — | — |  | Clc1cncc(OC[C@H]2CN(CCN3CCc4ccccc43)CCO2)c1 [Compound 27r, (R)-2-(((5-Chloropyridin-3-yl)oxy)methyl)-4-(2-(indolin-1-yl)ethyl)morpholine] |  | 

The next lines start with the compound.

Structure (SMILES) | Ki 5HT4 (5HT4 receptor) | Ki Alpha1B [1] | Ki 5HT6 (5HT6 receptor) | Ki 5HT7 (5HT7 receptor) | Ki D1 (dopamine D1 receptor) | Ki (5HT7 receptor) [µM] | Ki (dopamine D1 receptor) [µM] | Ki [1] [µM]
c1cncc(OC[C@@H]2CN(CCN3CCc4ccccc43)CCO2)c1 [Compound 21s, (S)-4-(2-(Indolin-1-yl)ethyl)-2-((pyridin-3-yloxy)methyl)morpholine] | — | — | — | — |  |  | > 10 | 
O=C(CN1CCO[C@H](COc2ccccc2)C1)N1CCc2ccccc21 [Compound 18s, (S)-1-(Indolin-1-yl)-2-(2-(phenoxymethyl)morpholino)ethanone] | — | — | — | — | — |  |  | 
Clc1cccc(OC[C@@H]2CN(CCN3CCc4ccccc43)CCO2)c1 [Compound 23s, (S)-2-((3-chlorophenoxy)methyl)-4-(2-(indolin-1-yl)ethyl)morpholine] | — |  | — | — |  |  | 2.04 | 6.64
COc1cccc(OC[C@@H]2CN(CCN3CCc4ccccc43)CCO2)c1 [Compound 25s, (S)-4-(2-(Indolin-1-yl)ethyl)-2-((3-methoxyphenoxy)methyl)morpholine] | — | — | — | — |  |  | 8.37 | 
Cc1ccc(OC[C@@H]2CN(CCN3CCc4ccccc43)CCO2)cn1 [Compound 28s, (S)-4-(2-(Indolin-1-yl)ethyl)-2-(((6-methylpyridin-3-yl)oxy)methyl)morpholine] | — | — | — | — | — |  |  | 
O=C(CN1CCO[C@@H](COc2ccccn2)C1)N1CCc2ccccc21 [Compound 14r, (R)-1-(Indolin-1-yl)-2-(2-((pyridin-2-yloxy)methyl)morpholino)ethanone] | — | — | — | — | — |  |  | 
O=C(CN1CCO[C@@H](COc2cccnc2)C1)N1CCc2ccccc21 [Compound 20r, (R)-1-(Indolin-1-yl)-2-(2-((pyridin-3-yloxy)methyl)morpholino)ethanone] | — | — | — | — | — |  |  | 
